Data from patent US8906925B2, “Pyrido[4,3-B]indoles containing rigid moieties” (Medivation Technologies, Inc., priority 2008, dated 2014).
Where “and” joins values, the source holds several entries; their conditions need not be identical. Equal entries are not always repeated. Where two headings read alike, the source gives them in different places.

Tests used:
[1] = test system: rat central imidazoline I2 receptor; test: Central imidazoline I2 radioligand binding ([3H]Idazoxan)
Experimental: To evaluate in radioligand binding assays the activity of compounds of the invention, rat central imidazoline I2 receptor obtained from Wistar Rat cerebral cortex (Brown, C. M. et al., Br. J. Pharmacol. 99:803, 1990) in a modified Tris-HCl buffer (50 mM Tris-HCl buffer, pH 7.4, 0.5 mM EDTA) was used. Compounds of the invention were incubated with 2 nM [^3H]Idazoxan for 30 min. at 25° C. Non-specific binding was estimated in the presence of 1 μM Idazoxan. Receptor proteins were filtered and washed, the filters were then counted to determine [^3H]Idazoxan specifically bound. Compounds were screened at 1 μM or lower, using 1% DMSO as vehicle. Compounds of the invention were tested in this biochemical assay and percent inhibition of specific binding was determined.

[2] = target: T1, rat adrenergic α1A receptor (Rattus norvegicus, UniProt P43140); test: Adrenergic α1A radioligand binding ([3H]Prozosin); conditions: compound at 1 μM
T1 construct: from tissue; host or cells: Wistar rat submaxillary glands
T1 sequence (P43140 1-466): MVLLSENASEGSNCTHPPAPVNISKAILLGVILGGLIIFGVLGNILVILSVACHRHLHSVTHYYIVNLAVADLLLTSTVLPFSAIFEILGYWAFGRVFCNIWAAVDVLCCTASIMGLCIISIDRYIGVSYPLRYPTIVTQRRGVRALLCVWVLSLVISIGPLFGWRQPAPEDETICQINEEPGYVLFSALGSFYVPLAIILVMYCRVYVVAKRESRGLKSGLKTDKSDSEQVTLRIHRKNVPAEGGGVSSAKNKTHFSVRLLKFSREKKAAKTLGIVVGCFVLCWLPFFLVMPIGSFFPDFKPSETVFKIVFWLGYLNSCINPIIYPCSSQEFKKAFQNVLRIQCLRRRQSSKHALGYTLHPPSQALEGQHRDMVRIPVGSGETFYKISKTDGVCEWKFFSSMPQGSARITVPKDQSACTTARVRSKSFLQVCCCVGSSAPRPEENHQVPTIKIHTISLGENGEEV
Experimental: (§1) To evaluate in radioligand binding assays the activity of compounds of the invention, rat adrenergic α1A receptor obtained from Wistar Rat submaxillary glands (Michel, A. D. et al., Br. J. Pharmacol. 98:883, 1989) in a modified Tris-HCl buffer (50 mM Tris-HCl buffer, pH 7.4, 0.5 mM EDTA) was used. Compounds of the invention were incubated with 0.25 nM [^3H]Prozosin for 60 min. at 25° C. Non-specific binding was estimated in the presence of 10 μM phentolamine. Receptor proteins were filtered and washed, the filters were then counted to determine [^3H]Prozosin specifically bound. Compounds of the invention were screened at 1 μM or lower, using 1% DMSO as vehicle. Compounds of the invention were tested in this biochemical assay and percent inhibition of specific binding was determined.

[3] = target: T2, rat adrenergic α1B receptor (Rattus norvegicus, UniProt P15823); test: Adrenergic α1B radioligand binding ([3H]Prozosin); conditions: compound at 1 μM
T2 construct: from tissue; host or cells: Wistar rat liver
T2 sequence (P15823 1-515): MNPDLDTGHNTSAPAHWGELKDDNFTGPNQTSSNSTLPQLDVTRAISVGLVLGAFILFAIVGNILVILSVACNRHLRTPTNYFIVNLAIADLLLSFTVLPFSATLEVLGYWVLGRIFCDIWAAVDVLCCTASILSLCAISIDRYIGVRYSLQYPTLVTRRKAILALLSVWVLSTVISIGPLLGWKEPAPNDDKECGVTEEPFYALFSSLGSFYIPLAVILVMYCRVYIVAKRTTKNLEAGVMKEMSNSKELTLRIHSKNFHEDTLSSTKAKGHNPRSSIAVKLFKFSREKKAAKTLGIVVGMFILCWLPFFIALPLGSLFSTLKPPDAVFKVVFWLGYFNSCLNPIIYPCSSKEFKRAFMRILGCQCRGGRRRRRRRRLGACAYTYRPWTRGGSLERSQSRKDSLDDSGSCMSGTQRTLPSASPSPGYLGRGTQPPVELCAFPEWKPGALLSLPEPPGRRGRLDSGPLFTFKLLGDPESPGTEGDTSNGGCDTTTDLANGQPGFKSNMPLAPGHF
Experimental: as §1, with “rat adrenergic α1B receptor obtained” for “rat adrenergic α1A receptor obtained”, “Wistar Rat liver (Garcia-S'ainz, J. A. et al., Biochem. Biophys. Res. Commun. 186:760, 1992; Michel A. D.” for “Wistar Rat submaxillary glands (Michel, A. D.”, “bound. Compounds were screened” for “bound. Compounds of the invention were screened”

[4] = target: T3, human recombinant serotonin (5-Hydroxytryptamine) 5-HT2B receptor (Homo sapiens, UniProt P41595); test: Serotonin 5-HT2B radioligand binding ([3H]LSD); conditions: for inhibition at 0.1 µM: compound at 0.1 μM; for inhibition at 0.1 µM / inhibition at 1 µM: read-out: Inhibition of ligand binding, Serotonin 5-HT2B (percent inhibition of specific binding)
T3 construct: expressed in transfected cells; host or cells: Chinese hamster ovary (CHO-K1) cells
Experimental: Compounds of invention were incubated with 1.2 nM [^3H]Lysergic acid diethylamide (LSD) for 60 min. at 37° C. […] Receptor proteins were filtered and washed, the filters were then counted to determine [^3H]LSD specifically bound. Compounds were screened at 1 μM or lower, using 1% DMSO as vehicle. Compounds of the invention were tested in this biochemical assay and percent inhibition of specific binding was determined. Biochemical assay results are presented as the percent inhibition of specific binding in Table 10.

[5] = target: T4, human recombinant serotonin (5-Hydroxytryptamine) 5-HT5A receptor (Homo sapiens, UniProt P47898); test: Serotonin 5-HT5A radioligand binding ([3H]LSD)
T4 construct: expressed in transfected cells; host or cells: Chinese hamster ovary (CHO-K1) cells
Experimental: Compounds of the invention are incubated with 1.7 nM [^3H]Lysergic acid diethylamide (LSD) for 60 min. at 37° C. […] Receptor proteins are filtered and washed, the filters are counted to determine [^3H]LSD specifically bound. Compounds are screened at 1 μM or lower, using 1% DMSO as vehicle. Compounds of the invention are tested in this biochemical assay and percent inhibition of specific binding is determined.

[6] = percent inhibition of specific binding, 1 µM
[7] = percent inhibition of specific binding, read-out: Inhibition of ligand binding, Adrenergic α1A
[8] = percent inhibition of specific binding, read-out: Inhibition of ligand binding, Adrenergic α1B
[9] = compound at 1 μM, read-out: Inhibition of ligand binding, Serotonin 5-HT5A (percent inhibition of specific binding)

T4 sequence (P47898 whole entry): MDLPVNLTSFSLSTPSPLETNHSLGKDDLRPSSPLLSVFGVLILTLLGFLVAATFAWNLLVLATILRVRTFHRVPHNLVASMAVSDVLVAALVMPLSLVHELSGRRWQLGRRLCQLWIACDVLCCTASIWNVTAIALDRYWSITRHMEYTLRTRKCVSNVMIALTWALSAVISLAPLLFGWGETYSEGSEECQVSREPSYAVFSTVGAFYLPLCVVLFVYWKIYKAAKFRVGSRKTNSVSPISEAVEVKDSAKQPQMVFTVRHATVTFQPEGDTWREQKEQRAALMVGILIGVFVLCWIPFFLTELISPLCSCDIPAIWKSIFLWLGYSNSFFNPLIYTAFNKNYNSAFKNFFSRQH
T3 sequence (P41595 whole entry): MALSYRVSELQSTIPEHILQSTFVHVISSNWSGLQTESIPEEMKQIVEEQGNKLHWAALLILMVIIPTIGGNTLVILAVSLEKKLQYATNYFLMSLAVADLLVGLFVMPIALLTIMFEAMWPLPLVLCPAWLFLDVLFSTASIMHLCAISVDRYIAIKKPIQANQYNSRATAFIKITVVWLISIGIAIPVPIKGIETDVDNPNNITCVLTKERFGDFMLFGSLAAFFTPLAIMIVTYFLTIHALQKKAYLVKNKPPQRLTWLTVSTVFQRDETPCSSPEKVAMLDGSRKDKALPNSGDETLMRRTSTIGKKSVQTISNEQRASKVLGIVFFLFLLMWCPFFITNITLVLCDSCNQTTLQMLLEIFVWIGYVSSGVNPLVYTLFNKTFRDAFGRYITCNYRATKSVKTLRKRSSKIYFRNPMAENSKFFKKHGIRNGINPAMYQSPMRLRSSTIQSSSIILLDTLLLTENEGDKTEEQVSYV

SMILES: Cc1ccc(C(O)Cn2c3c(c4cc(C)ccc42)CN(C)CC3)cc1 (racemic) [Compound 43, racemic-2-(1,2,3,4-tetrahydro-2,8-dimethylpyrido[4,3-b]indol-5-yl)-1-p-tolylethanol]
- Imidazoline I2 Central (1 μM), percent inhibition of specific binding ([1]; 1 µM): 76% and 79%
- Inhibition of ligand binding, Adrenergic α1A [2, 6]: 96%
- inhibition at 1 µM [2, 7]: 90%
- Inhibition of ligand binding, Adrenergic α1B [3, 6]: 96%
- inhibition at 1 µM [3, 8]: 97%
- inhibition at 0.1 µM [4]: -2%
- Inhibition of ligand binding, Serotonin 5-HT2B (percent inhibition of specific binding) ([4]; compound at 1 μM, 1 µM): 77%
- inhibition at 1 µM ([4]; compound at 1 μM): 70%
- inhibition at 0.1 µM ([5]; compound at 0.1 μM, read-out: Inhibition of ligand binding, Serotonin 5-HT5A (percent inhibition of specific binding)): 19%
- Inhibition of ligand binding, Serotonin 5-HT5A (percent inhibition of specific binding) ([5]; compound at 1 μM, 1 µM): 73%
- inhibition at 1 µM [5, 9]: 61%

SMILES: CCN1CCc2c(c3ccccc3n2CC(O)c2ccc(C)cc2)C1 (racemic) [Compound 44, racemic-2-(2-ethyl-1,2,3,4-tetrahydropyrido[4,3-b]indol-5-yl)-1-p-tolylethanol]
- Imidazoline I2 Central (1 μM), percent inhibition of specific binding [1]: 46%
- inhibition at 1 µM [2, 7]: 39%
- inhibition at 1 µM [3, 8]: 38%
- inhibition at 1 µM ([4]; compound at 1 μM): 11%
- inhibition at 1 µM [5, 9]: 0%

SMILES: CCN1CCc2c(c3cc(C)ccc3n2CC(O)c2ccc(C)cc2)C1 (racemic) [Compound 51, racemic-2-(2-ethyl-1,2,3,4-tetrahydro-8-methylpyrido[4,3-b]indol-5-yl)-1-p-tolylethanol]
- Imidazoline I2 Central (1 μM), percent inhibition of specific binding [1]: 79%
- inhibition at 1 µM [2, 7]: 86%
- inhibition at 1 µM [3, 8]: 95%
- inhibition at 0.1 µM [4]: 12%
- inhibition at 1 µM ([4]; compound at 1 μM): 32%
- inhibition at 1 µM [5, 9]: 27%

SMILES: Cc1ccc(C(O)Cn2c3c(c4ccccc42)CN(C)CC3)cc1 (racemic) [Compound 53, racemic-2-(1,2,3,4-tetrahydro-2-methylpyrido[4,3-b]indol-5-yl)-1-p-tolylethanol]
- Imidazoline I2 Central (1 μM), percent inhibition of specific binding [1]: 78%
- inhibition at 1 µM [2, 7]: 74%
- inhibition at 1 µM [3, 8]: 66%
- inhibition at 1 µM ([4]; compound at 1 μM): 23%
- inhibition at 1 µM [5, 9]: 26%

SMILES: Cc1ccc2[nH]c3c(c2c1)CN(C)CC3 [Compound 3, 2,8-Dimethyl-2,3,4,5-tetrahydro-1H-pyrido[4,3-b]indole]
- Imidazoline I2 Central (1 μM), percent inhibition of specific binding [1]: 58%

SMILES: C/C(=C\n1c2c(c3cc(Cl)ccc31)CN(C)CC2)c1ccc(F)cc1 [Compound 83, (E)-8-chloro-5-(2-(4-fluorophenyl)prop-1-enyl)-2,3,4,5-tetrahydro-2-methyl-1H-pyrido[4,3-b]indole]
- Imidazoline I2 Central (1 μM), percent inhibition of specific binding [1]: 85%
- inhibition at 1 µM [2, 7]: 90%
- inhibition at 1 µM [3, 8]: 96%
- inhibition at 1 µM ([4]; compound at 1 μM): 88%
- inhibition at 1 µM [5, 9]: 97%

SMILES: Cc1ccc2c(c1)c1c(n2CC#Cc2ccccn2)CCN(C)C1 [Compound No. 500, 2,3,4,5-tetrahydro-2,8-dimethyl-5-(3-(pyridin-2-yl)prop-2-ynyl)-1H-pyrido[4,3-b]indole]
- Imidazoline I2 Central (1 μM), percent inhibition of specific binding [1]: 54%
- inhibition at 1 µM ([2]; read-out: Inhibition of ligand binding, Adrenergic α1A (percent inhibition of specific binding)): 27%
- inhibition at 1 µM ([3]; read-out: Inhibition of ligand binding, Adrenergic α1B (percent inhibition of specific binding)): 27%
- inhibition at 1 µM ([4]; compound at 1 μM): 34%
- inhibition at 1 µM [5, 9]: 23%
